pIC50: −log10 of the molar value.
These molecules were tested against T1, angiotensin converting enzyme (Oryctolagus cuniculus, UniProt P12822) (assay: in vitro inhibition of angiotensin converting enzyme (cleavage of hippuryl-histidyl-leucine)). Conditions: hippuryl-histidyl-leucine 2 mM, potassium phosphate buffer pH 8.3, 100 mM, NaCl 300 mM, 24 minutes at 37° C., read-out: IC50 (concentration of test substance which reduces by 50% the cleavage of hippuryl-histidyl-leucine by angiotensin converting enzyme).
T1 sequence (P12822 34-1310): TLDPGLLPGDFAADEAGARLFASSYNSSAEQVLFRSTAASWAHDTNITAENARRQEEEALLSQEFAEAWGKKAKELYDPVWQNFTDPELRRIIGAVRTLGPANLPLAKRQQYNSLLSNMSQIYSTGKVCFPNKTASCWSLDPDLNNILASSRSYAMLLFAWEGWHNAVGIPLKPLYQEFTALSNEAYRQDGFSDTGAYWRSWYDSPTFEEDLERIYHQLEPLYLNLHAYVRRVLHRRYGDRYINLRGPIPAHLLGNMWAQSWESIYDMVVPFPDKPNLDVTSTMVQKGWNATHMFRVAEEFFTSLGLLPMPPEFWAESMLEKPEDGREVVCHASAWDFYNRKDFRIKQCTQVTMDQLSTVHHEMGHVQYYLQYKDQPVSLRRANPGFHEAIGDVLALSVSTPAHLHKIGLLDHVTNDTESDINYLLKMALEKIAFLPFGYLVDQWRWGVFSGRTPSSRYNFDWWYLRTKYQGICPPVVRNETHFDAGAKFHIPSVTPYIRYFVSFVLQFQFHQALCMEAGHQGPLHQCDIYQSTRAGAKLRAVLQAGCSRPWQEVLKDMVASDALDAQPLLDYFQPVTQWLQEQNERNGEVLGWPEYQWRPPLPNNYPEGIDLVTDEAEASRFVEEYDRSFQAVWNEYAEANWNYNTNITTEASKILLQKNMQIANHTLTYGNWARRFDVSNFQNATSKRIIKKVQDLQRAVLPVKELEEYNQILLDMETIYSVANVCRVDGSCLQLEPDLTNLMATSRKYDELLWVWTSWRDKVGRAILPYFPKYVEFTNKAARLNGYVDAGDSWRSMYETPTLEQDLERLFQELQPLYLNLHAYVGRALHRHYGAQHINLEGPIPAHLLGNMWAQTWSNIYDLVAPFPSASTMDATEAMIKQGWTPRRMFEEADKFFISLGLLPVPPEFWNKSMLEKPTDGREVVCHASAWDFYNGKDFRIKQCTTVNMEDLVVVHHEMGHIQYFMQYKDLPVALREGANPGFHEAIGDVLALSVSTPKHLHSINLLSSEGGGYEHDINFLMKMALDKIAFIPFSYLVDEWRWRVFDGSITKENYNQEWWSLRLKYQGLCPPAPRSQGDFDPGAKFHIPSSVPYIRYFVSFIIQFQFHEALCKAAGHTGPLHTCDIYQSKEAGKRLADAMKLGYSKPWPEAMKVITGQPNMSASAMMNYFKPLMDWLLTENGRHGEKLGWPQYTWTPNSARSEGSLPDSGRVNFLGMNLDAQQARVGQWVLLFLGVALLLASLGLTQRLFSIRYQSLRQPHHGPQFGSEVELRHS
Type: biochemical
Experimental: The activity of the present compounds in inhibiting angiotensin converting enzyme in vitro can be determined by the following test.
The method used is based on the method of Cushman and Cheung (Biochem. Pharmacol., 20. 1637-1648) incorporating the modifications introduced by Hayakari et al (Anal. Biochem., 84. 361-369). The substrate (hippuryl-histidyl-leucine, 2 mM) is incubated with angiotensin converting enzyme in the presence or absence of various concentrations of test substance in potassium phosphate buffer (pH 8.3; 100 mM) containing sodium chloride (300 mM) for 24 minutes at 37° C. (total value 500 μl). (If the test substance is an ester, it is appropriate to cleave it by means of hog liver esterase before carrying out the test). The reaction is terminated by the addition of 3 ml of potassium phosphate buffer (pH 8.3; 200 mM) at 0° C. 2,4,6-Trichloro-s-triazine (3%) in 1.5 ml of dioxane is added and the mixture is agitated until the yellow chromophore has developed fully. The samples are then centrifuged to remove any precipitate which has formed. The yellow chromophore formed by the reaction of the 2,4,6-trichloro-s-triazine with free hippuric acid is measured spectrophotometrically at 382 nm. IC50 values are defined as the concentration of test substance which reduces by 50% the cleavage of hippuryl-histidyl-leucine by angiotensin converting enzyme under the aforementioned conditions.
The results obtained in the foregoing test using representative compounds of formula I as the test substance are compiled in the following Table.

Row | pIC50 | Structure (SMILES)
1 | 7.96 | O=C(O)C(CCCc1ccccc1)N[C@H]1CCC(=O)N2CCC[C@@H](C(=O)O)N2C1=O (mixture of isomers) [Compound D, 9(S)-[1(R and S)-carboxy-4-phenylbutylamino]-octahydro-6,10-dioxo-6H-pyridazo[1,2-a][1,2]diazepine-1(S)-carboxylic acid]
2 | 7.59 | O=C(O)C(Cc1ccccc1)N[C@H]1CCC(=O)N2CCC[C@@H](C(=O)O)N2C1=O (mixture of isomers) [Compound E, 9(S)-[1(R and S)-carboxy-2-phenylethylamino]-octahydro-6,10-dioxo-6H-pyridazo[1,2-a][1,2]diazepine-1(S)-carboxylic acid]
3 | 7.92 | CC(C)CCC(N[C@H]1CCC(=O)N2CCC[C@@H](C(=O)O)N2C1=O)C(=O)O (mixture of isomers) [Compound F, 9(S)-[1(R and S)-carboxy-4-methylpentylamino]-octahydro-6,10-dioxo-6H-pyridazo[1,2-a][1,2]diazepine-1(S)-carboxylic acid]
4 | 7.26 | O=C(O)C(CCc1ccccc1)NC1CCN2CCCC(C(=O)O)N2C1=O (racemic) [Compound C, 8-(1-Carboxy-3-phenylpropylamino)-octahydro-9-oxopyridazo[1,2-a]pyridazine-1-carboxylic acid]
5 | 8.38 | O=C(O)C(CCc1ccccc1)N[C@H]1CCC(=O)N2CCC[C@@H](C(=O)O)N2C1=O (single isomer, unassigned) [Compound A]
6 | 7.66 | O=C(O)C(CCc1ccccc1)N[C@H]1CC(=O)N2CCCC(C(=O)O)N2C1=O (single isomer, unassigned) [Compound B]
